What follows are molecules tested against T1, human IL-17AA (Homo sapiens, UniProt Q16552) (assay: IL-8 release assay in human epithelial keratinocytes adult (HEKa)). Conditions: 3 ng/ml human IL-17AA + 10 ng/ml human TNFalpha, 68-72 h, IL-8 by HTRF, read-out: Rel EC50 L-8 release assay.
T1 construct: host or cells: HEK (human embryonic kidney) cells
T1 sequence (Q16552 24-155) 1: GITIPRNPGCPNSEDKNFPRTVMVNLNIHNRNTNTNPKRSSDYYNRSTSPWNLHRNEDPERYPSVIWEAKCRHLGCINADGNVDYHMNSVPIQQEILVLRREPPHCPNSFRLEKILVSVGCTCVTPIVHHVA
T1 sequence (Q16552 24-155) 2: T1 sequence (Q16552 24-155) 1
Type: cell-based
Experimental: Example: IL-8 release assay in human epithelial keratinocytes adult (HEKa) Keratinocytes were seeded at 3500 cells/well in 384-well ViewPlates (Perkin Elmer) in Epilife medium (Thermo Fisher) containing human keratinocyte growth supplement (HKGS) without hydrocortisone and incubated in a humid incubator at 37° C., 5% CO2, overnight. The following day growth medium was removed and 25 μl fresh Epilife 10 medium added. 75 nl test compound in 100% DMSO was added into each well reserved
for test compounds, by the use of acoustic pipetting. The remaining wells received an equal volume of DMSO only, as vehicle control, or terfenadine in DMSO, as a positive control for any cytotoxic compounds. Subsequently, another 25 μl Epilife medium was added to each well. Finally, wells containing test compounds and wells prepared to yield 15 maximum stimulation received 25 μl of 9 ng/ml recombinant, human embryonic kidney cell (HEK)-derived human IL-17AA+30 ng/ml human TNF-alpha, in Epilife medium. Wells prepared to define 100% inhibition of IL-17 effects received 25 μl of 30 ng/ml human TNF-alpha alone, in Epilife medium. Final concentrations were 3 ng/ml HEKhuman IL-17AA+10 ng/ml human TNFalpha (maximum stimulation) and 10 ng/ml 20 human TNFalpha alone (100% inhibition, Emax), respectively. Cells were incubated for 68-72 h in the incubator. IL-8 released from the cells was measured by the use of a commercial homogenous time-resolved fluorescence (HTRF) assay (CisBio). 2 μl cell culture supernatant was transferred to a 384-well Proxiplate. 5 μl HTRF reagent was added and the plates incubated sealed in the dark for 3-22 h at room temperature. Time resolved fluorescence was read at 665 vs 620 nm, with excitation at 320 nm, and IL-8 levels calculated as percent of controls. Reduction of the amount of secreted IL-8 indicates decreased IL-17 signaling. Concentration response curves were fitted by the use of a four-parameter logistic equation. Relative IC50 and Emax were reported from 5 curves showing acceptable fit (r2>0.9). Cytotoxicity was measured in the cell-containing
Compounds of the present invention were tested in the IL-8 release assay in human epithelial keratinocytes.
`Cc1ncn(C)c1-c1ccc(NC(=O)[C@@H](NC(=O)C2(F)CC2)C(C)c2cc(-c3ccc(=O)n(C(C)C)c3)ccc2Cl)cc1` (stereo partly drawn) [Example 52, N-[(1S)-2-[2-chloro-5-(1-isopropyl-6-oxo-3-pyridyl)phenyl]-1-[[4-(3,5-dimethylimidazol-4-yl)phenyl]carbamoyl]propyl]-1-fluoro-cyclopropanecarboxamide] showed an EC50 of over 1 µM.
Work on `Cc1n[nH]c(C)c1-c1ccc(NC(=O)[C@@H](NC(=O)c2ccnn2C)[C@@H]2CCc3ccc(-c4ccc(CN5CCCCC5)cc4)cc32)cc1` [Example 20, N-[(1S)-2-[4-(3,5-dimethyl-1H-pyrazol-4-yl)anilino]-2-oxo-1-[(1R)-6-[4-(1-piperidylmethyl)phenyl]indan-1-yl]ethyl]-2-methyl-pyrazole-3-carboxamide] yielded an EC50 of 0.1 to 1 µM.
Molecule `CC(C)n1cc(-c2ccc(Cl)c(C[C@H](NC(=O)C3(F)CCC3)C(=O)Nc3ccc(-c4cncn4C)cc3)c2)ccc1=O` [Example 147, N-[(1S)-1-[[2-chloro-5-(1-isopropyl-6-oxo-3-pyridyl)phenyl]methyl]-2-[4-(3-methylimidazol-4-yl)anilino]-2-oxo-ethyl]-1-fluoro-cyclobutanecarboxamide] has an EC50 of 0.1 to 1 µM.
For `CC(C)c1cc(-c2ccc(Cl)c(CC(NC(=O)c3ccnn3C)C(=O)Nc3ccc(-c4nncn4C4CC4)cc3)c2)ccn1` (centres unmarked) [Example 74, N-[1-[[2-chloro-5-(2-isopropyl-4-pyridyl)phenyl]methyl]-2-[4-(4-cyclopropyl-1,2,4-triazol-3-yl)anilino]-2-oxo-ethyl]-2-methyl-pyrazole-3-carboxamide], the EC50 was 0.1 to 1 µM.
Work on `CC(C)n1cc(-c2ccc(Cl)c(CC(NC(=O)c3ccnn3C)C(=O)Nc3ccc(-c4cncn4C)cc3)c2)ccc1=O` (centres unmarked) [Example 79, N-[1-[[2-chloro-5-(1-isopropyl-6-oxo-3-pyridyl)phenyl]methyl]-2-[4-(3-methylimidazol-4-yl)anilino]-2-oxo-ethyl]-2-methyl-pyrazole-3-carboxamide] yielded an EC50 of 0.1 to 1 µM.
For `Cc1n[nH]c(C)c1-c1ccc(NC(=O)[C@H](Cc2cc(-c3ccc(=O)n(C(C)C)c3)ccc2Cl)NC(=O)C2(F)CC2)cc1` [Example 137, N-[(1S)-1-[[2-chloro-5-(1-isopropyl-6-oxo-3-pyridyl)phenyl]methyl]-2-[4-(3,5-dimethyl-1H-pyrazol-4-yl)anilino]-2-oxo-ethyl]-1-fluoro-cyclopropanecarboxamide], the EC50 was under 0.1 µM.
Work on `Cc1cnn(C)c1-c1ccc(NC(=O)[C@H](Cc2cc(-c3ccc(=O)n(C(C)C)c3)ccc2Cl)NC(=O)c2cnco2)cc1` [Example 321, N-[(1S)-1-[[2-chloro-5-(1-isopropyl-6-oxo-3-pyridyl)phenyl]methyl]-2-[4-(2,4-dimethylpyrazol-3-yl)anilino]-2-oxo-ethyl]oxazole-5-carboxamide] yielded an EC50 of over 1 µM.
`CC(C)n1cc(-c2ccc(Cl)c(C[C@H](NC(=O)[C@@H]3CC3(F)F)C(=O)Nc3ccc(-c4nncn4C)cc3)c2)ccc1=O` [Example 287, (1S)-N-[(1S)-1-[[2-chloro-5-(1-isopropyl-6-oxo-3-pyridyl)phenyl]methyl]-2-[4-(4-methyl-1,2,4-triazol-3-yl)anilino]-2-oxo-ethyl]-2,2-difluoro-cyclopropanecarboxamide] was tested, and the EC50 was over 1 µM.
`Cc1nocc1C(=O)NC(Cc1cc(-c2ccc(=O)n(C3CC3)c2)ccc1Cl)C(=O)Nc1ccc(-c2nncn2C)cc1` (centres unmarked) [Example 63, N-[1-[[2-chloro-5-(1-cyclopropyl-6-oxo-3-pyridyl)phenyl]methyl]-2-[4-(4-methyl-1,2,4-triazol-3-yl)anilino]-2-oxo-ethyl]-3-methyl-isoxazole-4-carboxamide] gave an EC50 of over 1 µM.
In the case of `Cc1n[nH]cc1-c1ccc(NC(=O)C(NC(=O)c2ccnn2C)C(c2ccccc2)c2cccc(-c3ccc(=O)n(C(C)C)c3)c2)cc1` (single isomer, unassigned; diastereomer 3) [Example 237, N-[1-[[3-(1-isopropyl-6-oxo-3-pyridyl)phenyl]-phenyl-methyl]-2-[4-(3-methyl-1H-pyrazol-4-yl)anilino]-2-oxo-ethyl]-2-methyl-pyrazole-3-carboxamide (Diastereomer 3)], the EC50 is reported as over 1 µM.
`Cc1n[nH]c(C)c1-c1ccc(NC(=O)[C@@H](NC(=O)C2(F)CC2)[C@@H]2CCc3ccc(-c4cc(C)c(=O)n(C(C)C)c4)cc32)cc1` [Example 357, N-[(1S)-2-[4-(3,5-dimethyl-1H-pyrazol-4-yl)anilino]-1-[(1R)-6-(1-isopropyl-5-methyl-6-oxo-3-pyridyl)indan-1-yl]-2-oxo-ethyl]-1-fluoro-cyclopropanecarboxamide] was tested, and the EC50 was under 0.1 µM.
Work on `Cc1cnn(C)c1-c1ccc(NC(=O)[C@@H](NC(=O)C2(F)CC2)[C@@H]2CCc3ccc(-c4cc(N5C[C@@H]6C[C@H]5CO6)ncn4)cc32)cc1` [Example 365, N-[(1S)-2-[4-(2,4-dimethylpyrazol-3-yl)anilino]-1-[(1R)-6-[6-[(1S,4S)-2-oxa-5-azabicyclo[2.2.1]heptan-5-yl]pyrimidin-4-yl]indan-1-yl]-2-oxo-ethyl]-1-fluoro-cyclopropanecarboxamide] yielded an EC50 of 0.1 to 1 µM.
In the case of `Cc1nocc1C(=O)N[C@@H](Cc1cc(-c2ccnc(C(O)C(C)C)c2)ccc1Cl)C(=O)Nc1ccc(-c2nncn2C)cc1` (stereo partly drawn) [Example 82, N-[(1S)-1-[[2-chloro-5-[2-(1-hydroxy-2-methyl-propyl)-4-pyridyl]phenyl]methyl]-2-[4-(4-methyl-1,2,4-triazol-3-yl)anilino]-2-oxo-ethyl]-3-methyl-isoxazole-4-carboxamide], the EC50 is reported as 0.1 to 1 µM.
`CC(C)n1cc(-c2ccc(Cl)c(C[C@H](NC(=O)C3(F)CC3)C(=O)Nc3ccc(-c4nncn4C)cc3)c2)ccc1=O` [Example 92, N-[(1S)-1-[[2-chloro-5-(1-isopropyl-6-oxo-3-pyridyl)phenyl]methyl]-2-[4-(4-methyl-1,2,4-triazol-3-yl)anilino]-2-oxo-ethyl]-1-fluoro-cyclopropanecarboxamide] showed an EC50 of over 1 µM.
`CC(C)n1cc(-c2ccc(Cl)c(C[C@H](NC(=O)[C@H]3CC3(F)F)C(=O)Nc3ccc(-c4nncn4C)cc3)c2)ccc1=O` [Example 288, (1R)-N-[(1S)-1-[[2-chloro-5-(1-isopropyl-6-oxo-3-pyridyl)phenyl]methyl]-2-[4-(4-methyl-1,2,4-triazol-3-yl)anilino]-2-oxo-ethyl]-2,2-difluoro-cyclopropanecarboxamide] was tested, and the EC50 was over 1 µM.
`Cc1nncn1-c1ccc(NC(=O)C(Cc2cc(-c3ccc(=O)n(C(C)C)c3)ccc2Cl)NC(=O)c2ccnn2C)cc1` (centres unmarked) [Example 77, N-[1-[[2-chloro-5-(1-isopropyl-6-oxo-3-pyridyl)phenyl]methyl]-2-[4-(3-methyl-1,2,4-triazol-4-yl)anilino]-2-oxo-ethyl]-2-methyl-pyrazole-3-carboxamide] gave an EC50 of over 1 µM.
`Cc1ncn(C)c1-c1ccc(NC(=O)[C@H](Cc2cc(-c3ccnc(N4CCN(C)CC4)c3)ccc2Cl)NC(=O)OC2CC2)cc1` [Example 211, cyclopropyl N-[(1S)-1-[[2-chloro-5-[2-(4-methylpiperazin-1-yl)-4-pyridyl]phenyl]methyl]-2-[4-(3,5-dimethylimidazol-4-yl)anilino]-2-oxo-ethyl]carbamate] was tested, and the EC50 was 0.1 to 1 µM.
For `Cc1n[nH]cc1-c1ccc(NC(=O)C(NC(=O)c2ccnn2C)C(c2ccccc2)c2cccc(-c3ccc(=O)n(C(C)C)c3)c2)cc1` (single isomer, unassigned; diastereomer 4) [Example 238, N-[1-[[3-(1-isopropyl-6-oxo-3-pyridyl)phenyl]-phenyl-methyl]-2-[4-(3-methyl-1H-pyrazol-4-yl)anilino]-2-oxo-ethyl]-2-methyl-pyrazole-3-carboxamide (Diastereomer 4)], the EC50 was 0.1 to 1 µM.
For `CC(C)n1cc(-c2ccc(Cl)c(CC(NC(=O)c3ccnn3C)C(=O)Nc3ccc(-c4c[nH]nc4C(F)(F)F)cc3)c2)ccc1=O` (centres unmarked) [Example 121, N-[1-[[2-chloro-5-(1-isopropyl-6-oxo-3-pyridyl)phenyl]methyl]-2-oxo-2-[4-[3-(trifluoromethyl)-1H-pyrazol-4-yl]anilino]ethyl]-2-methyl-pyrazole-3-carboxamide], the EC50 was 0.1 to 1 µM.
In the case of `Cc1nccn1-c1ccc(NC(=O)[C@@H](NC(=O)C2(F)CC2)[C@@H]2CCCc3ccc(-c4ccnc(N5C[C@@H]6C[C@H]5CO6)c4)cc32)cc1` [Example 400, 1-fluoro-N-[(1S)-2-[4-(2-methylimidazol-1-yl)anilino]-1-[(1R)-7-[2-[(1S,4S)-2-oxa-5-azabicyclo[2.2.1]heptan-5-yl]-4-pyridyl]tetralin-1-yl]-2-oxo-ethyl]cyclopropanecarboxamide], the EC50 is reported as 0.1 to 1 µM.
